Measurements from US11504394B2, “Targeted ionophore-based metal delivery” (The Regents of the University of California, priority 2018, dated 2022).

Legend:
[1] = system: HepG2 (ASGPR-expressing) cells; test: Cellular copper delivery by ICP-MS, HepG2; type: cell-based
Method: (§1) Cells were maintained by the UC Berkeley Tissue Culture Facility. HEK 293T and HepG2 cells were maintained as a monolayer in exponential growth at 37° C. in a 5% CO2 atmosphere. HEK 293T cells were maintained in Dulbecco's Modified Eagle Medium (DMEM, Gibco) supplemented with 10% fetal bovine serum (FBS, Hyclone), and glutamax (Gibco). HepG2 cells were maintained in low glucose DMEM with L-glutamine and sodium pyruvate (Gibco). One day before ionophore treatment, cells were passaged and plated in DMEM with glutamax supplemented with 10% FBS on either poly D-lysine-coated (HEK 293T) or gelatin-coated (HepG2) sterile 6-well Corning polystyrene plates. Cells were grown to 60 to 80% confluency prior to ionophore treatment.
Cells were washed twice with serum-free DMEM. 2 mM stock solutions of Cu(gtsm) or Gal-Cu(gtsm) were diluted in serum-free DMEM to a final ionophore concentration of 4 μM. 2 mL of vehicle (0.2% DMSO in DMEM), 4 μM Cu(gtsm), or 4 μM Gal-Cu(gtsm) were then added to the 6-well plates and incubated for three hours. For the galactose competition experiment, cells were washed twice with serum-free DMEM, then incubated with 2 mL serum-free DMEM either with or without 1 M D-galactose (Sigma Aldrich) for 15 minutes. 4 μL of DMSO, 2 mM Cu(gtsm), or 10 mM Gal-Cu(gtsm) was diluted with 300 μL of cell media, which was then mixed back into each well. Cells were then incubated for one hour. Cells were then rinsed twice with ice-cold EDTA (1 mM in 50 mM HEPES buffer, pH=7.4) to remove cell surface-bound copper and rinsed twice with ice-cold 50 mM HEPES buffer (pH=7.4), followed by the addition of 215 μL concentrated nitric acid (BDH Aristar Ultra). The plates were sealed with Parafilm and incubated on a shaker overnight. Samples (150 μL) were further diluted in 2 mL 2% nitric acid (made freshly from concentrated nitric acid and Milli-Q water) in 15 mL tubes (Sarstedt) and analyzed on a Thermo Fisher iCAP Qc ICP mass spectrometer in kinetic energy discrimination (KED) mode against a standard curve of known copper and phosphorus concentrations (CMS-5, Inorganic Ventures), with Ga (20 μg/L, Inorganic Ventures) as an internal standard. Each experiment was carried out twice and each condition was repeated in at least triplicate.

[2] = Dynamic light scattering, colloidal aggregate formation; type: physicochemical
Method: To assess colloidal aggregate formation, Gal-Cu(gtsm) was dissolved in PBS (pH 7.4) to a final concentration of 1 mM. The hydrodynamic diameter (DH) of the formed colloidal particles were determined by dynamic light scattering (DLS) obtained on a Zetasizer® Nano Series (Malvern Instruments, UK) and reported as the number-weighted mean. Samples were filtered with a 0.2 μm syringe filter and measured with a disposable ZEN0040 cuvette. Peaks of varying sizes were found, indicating a polydisperse formation of Gal-Cu(gtsm) aggregates. Measurements were taken in triplicate. Error is reported as the standard deviation from three separate replicates.

[3] = system: HEK 293T (no ASGPR expression) cells; test: Cellular copper delivery by ICP-MS, HEK 293T; type: cell-based; conditions: 4 μM, three hours, serum-free DMEM
Method: as §1
Cells were washed twice with serum-free DMEM. 2 mM stock solutions of Cu(gtsm) or Gal-Cu(gtsm) were diluted in serum-free DMEM to a final ionophore concentration of 4 μM. […] Samples (150 μL) were further diluted in 2 mL 2% nitric acid (made freshly from concentrated nitric acid and Milli-Q water) in 15 mL tubes (Sarstedt) and analyzed on a Thermo Fisher iCAP Qc ICP mass spectrometer in kinetic energy discrimination (KED) mode against a standard curve of known copper and phosphorus concentrations (CMS-5, Inorganic Ventures), with Ga (20 μg/L, Inorganic Ventures) as an internal standard. […]

ATP7B = test: Western blot of liver lysates, ATP7B; type: in vivo, mouse; conditions: 6 and 24 hours
Method: Frozen mouse livers were minced into 50 mg samples on dry ice and homogenized in ice-cold RIPA buffer (25 mM Tris.HCl pH 7.6, 150 mM NaCl, 1% NP-40, 1% sodium deoxycholate, 0.1% SDS) containing protease inhibitor cocktail with EDTA (Roche) at 100 mg/mL using a hand-held mechanical homogenizer. Homogenates were incubated on ice for 30 min and centrifuged at 12,000×g for 20 min at 4° C. The soluble protein lysates were collected from underneath the upper lipid layer with a pipette and transferred to new tubes. Protein concentration was determined using a detergent-compatible Bradford Assay (Pierce).
Protein lysates were denatured in NuPAGE lithium dodecyl sulfate sample buffer (Invitrogen) containing 10% v/v β-mercaptoethanol as a reducing agent. […] The membranes were washed 5 times for 5 minutes in TBST, then visualized using enhanced chemiluminescence (Western Lighting Plus for visualizing CCS and ATP7B, Perkin Elmer; Western Clarity Max for visualizing CTR1 and MT, Bio-Rad) recorded on a BioRad GelDoc imaging station. β-actin was probed to determine equal loading using anti-β-actin (sc-69879, Santa Cruz Biotechnology) and AlexaFluor 647-conjugated anti-mouse IgG (A31571, Molecular Probes) antibodies at 1:5000 and 1:2500 dilutions, respectively, with visualization using fluorescence recorded on a BioRad GelDoc imaging station.

[4] = system: mouse model for non-alcoholic fatty liver disease; test: High fat diet mouse model for non-alcoholic fatty liver disease; type: in vivo, mice
Method: The potential of Gal-Cu(gtsm) in the treatment of non-alcoholic fatty liver disease (NFALD) was assessed in a mouse model. Mice were subjected to a high fat diet.

Structure (SMILES): CNC1=N[N+]2=CC=[N+]3N=C(NCCOCCOCCOC4OC(CO)C(O)C(O)C4NC(C)=O)[S][Cu-2]23[S]1 (stereo not drawn) [Gal-Cu(gtsm)]
- Cu increase relative to basal levels (^63Cu/^31P) ([1]; HepG2, 4 μM, three hours, serum-free DMEM): 4 fold
- temperature dependent uptake ([1]; HepG2, 4° C. vs 37° C.): much higher uptake at 37 °C than at 4 °C
- Cu delivery in presence of D-galactose (competitive ASGPR ligand) ([1]; HepG2, D-galactose 1 M, one hour, Cu(gtsm) 4 μM, Gal-Cu(gtsm) 20 μM): significantly attenuated
- dose response of cellular copper content ([1]; HepG2, ICP-MS total copper): robust dose-dependent copper delivery response
- number-weighted hydrodynamic diameter ([2]; 1 mM in PBS (pH 7.4), DLS, error = standard deviation): 4.60±0.69 nm
- colloid formation in aqueous buffer ([2]; aqueous buffer): forms colloids
- Cu increase relative to basal levels (^63Cu/^31P) [3]: does not increase cellular copper beyond basal levels
- ATP7B expression in liver (ATP7B): increased
- tissue copper content (ICP-MS) [4]: restores copper homeostasis
- glucose tolerance test ([4]; vs untreated HFD mice): improved metabolism
- liver steatosis and fattiness ([4]; vs untreated HFD mice): significantly reduced
- serum ALT assay ([4]; vs untreated HFD mice): rescued liver health
